Where two headings read alike, the source gives them in different places.
Key:
[1] = tested on: FLAP-mediated cellular LT formation in human neutrophils; design: method as in PMID 32045233; details: previously identified; read-out: IC50, inhibition of cellular leukotriene (LT) biosynthesis by targeting FLAP; cited from earlier work
Human recombinant sEH [2] = biological target: T1, Human recombinant sEH (Homo sapiens, UniProt P34913); design: method as in PMID 32045233; details: previously identified compound; cited from earlier work
T1 construct: made in house; host or cells: Sf9 insect cells, recombinant baculovirus from Dr. B. Hammock
T1 sequence (P34913 1-555): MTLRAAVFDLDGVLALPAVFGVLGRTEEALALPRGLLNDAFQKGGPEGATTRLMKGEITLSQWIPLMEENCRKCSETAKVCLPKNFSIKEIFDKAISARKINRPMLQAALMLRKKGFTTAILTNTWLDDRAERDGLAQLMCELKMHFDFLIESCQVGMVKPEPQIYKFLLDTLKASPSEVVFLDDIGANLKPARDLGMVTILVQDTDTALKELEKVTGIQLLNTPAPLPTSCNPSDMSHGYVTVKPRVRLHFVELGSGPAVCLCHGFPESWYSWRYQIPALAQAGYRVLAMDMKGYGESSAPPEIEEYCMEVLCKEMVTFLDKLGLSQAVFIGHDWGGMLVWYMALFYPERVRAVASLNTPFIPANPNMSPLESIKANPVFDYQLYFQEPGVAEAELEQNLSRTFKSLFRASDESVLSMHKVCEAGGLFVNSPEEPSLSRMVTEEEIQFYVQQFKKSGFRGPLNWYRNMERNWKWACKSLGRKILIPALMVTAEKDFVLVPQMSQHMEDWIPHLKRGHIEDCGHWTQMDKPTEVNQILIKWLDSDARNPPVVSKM

Human recombinant sEH [3] = biological target: T1, Human recombinant sEH; assay: sEH cell-free fluorescence-based assay (PHOME substrate); assay type: biochemical; details: means ± SEM, n = 3; for IC50: cell-free assay, human sEH; for remaining activity at 10 µM: residual activity at 10 μM, control = vehicle 100%
Description: Human recombinant sEH was expressed and purified as reported before.[46] In brief, Sf9 cells were infected with a recombinant baculovirus (kindly provided by Dr. B. Hammock, University of California, Davis, CA). Seventy-two hours post-transfection, cells were pelleted and sonicated (3 × 10 s at 4 °C) in lysis buffer containing NaHPO4 (50 mM, pH 8), NaCl (300 mM), glycerol (10%), EDTA (1 mM), phenylmethanesulfonyl fluoride (1 mM), leupeptin (10 μg/mL), and a soybean trypsin inhibitor (60 μg/mL). Supernatants after centrifugation at 100,000 × g (60 min, 4 °C) were subjected to benzylthio-sepharose-affinity chromatography in order to purify sEH by elution with 4-fluorochalcone oxide in PBS containing 1 mM DTT and 1 mM EDTA. Dialyzed and concentrated (Millipore Amicon-Ultra-15 centrifugal filter) enzyme solution was assayed for total protein with a Bio-Rad protein detection kit (Bio-Rad Laboratories, Munich, Germany), and the epoxide hydrolase activity was determined by using a fluorescence-based assay as described before.[47] Shortly, sEH was diluted in Tris buffer (25 mM, pH 7) supplemented with BSA (0.1 mg/mL) to an appropriate enzyme concentration and preincubated with test compounds or vehicle (0.1% DMSO) for 10 min at room temperature (RT). The reaction was started by the addition of 50 μM 3-phenyl-cyano(6-methoxy-2-naphthalenyl)methyl ester-2-oxiraneacetic acid (PHOME), a nonfluorescent compound that is enzymatically converted into fluorescent 6-methoxy-naphtaldehyde at RT. After 60 min, reactions were stopped by ZnSO4 (200 mM) and fluorescence was detected (λem 465 nm, λex 330 nm) using a NOVOstar microplate reader (BMG Labtech GmbH, Ortenberg, Germany), and potential fluorescence of test compounds was subtracted from the read-out, if required.

[4] = tested on: FLAP-mediated cellular LT formation in human neutrophils; assay: FLAP-dependent 5-LO product formation in intact neutrophils; assay type: cell-based; details: Neutrophil; for IC50: Homo sapiens, intact neutrophils challenged with 2.5 μM ionophore plus 20 μM arachidonic acid; for activity at 1 µM: 1 μM inhibitor, read-out: 5-LO product formation in neutrophils, remaining activity (% of control) at 1 μM; for activity at 1 µM / activity at 10 µM: human neutrophils, 2.5 μM Ca2+-ionophore A23187, means ± SEM, n = 4–5; for activity at 10 µM: 10 μM inhibitor, read-out: 5-LO product formation in neutrophils, remaining activity (% of control) at 10 μM
Description: Neutrophils were isolated from leukocyte concentrates obtained from freshly withdrawn peripheral blood of healthy adult male and female donors which were provided by the Institute of Transfusion Medicine, University Hospital Jena, Germany. The experimental protocol was approved by the ethical committee of the University Hospital Jena, and all methods were performed in accordance with the relevant guidelines and regulations. The leukocyte concentrates were mixed with dextran (from Leuconostoc spp. MW ∼40,000, Sigma Aldrich) for sedimentation of erythrocytes, and the supernatant was centrifuged on lymphocyte separation medium (Histopaque-1077, Sigma Aldrich). Contaminating erythrocytes in the pelleted neutrophils were removed by hypotonic lysis using distilled water. The neutrophils were washed twice in ice-cold PBS pH 7.4 and finally resuspended in PBS pH 7.4 plus 1 mg/mL glucose (PGC buffer).
Human neutrophils [5 × 10^6; in PGC buffer; incubation volume, 1 mL] were preincubated with 0.1% DMSO (vehicle) or with the compounds at 37 °C for 15 min. […] Samples were then subjected to solid-phase extraction on C18-columns (100 mg, UCT, Bristol, PA), and 5-LO products (LTB4 and its trans-isomers, and 5-H(p)ETE) were extracted and analyzed in the presence of internal standard PGB1 by RP-HPLC and UV detection as reported elsewhere.[45]

| melting point | IC50 (Human recombinant sEH [3]) | IC50 [4] | remaining activity at 10 µM (Human recombinant sEH [3]) | SMILES | IC50 [1] | activity against sEH (in words) (Human recombinant sEH [2]) | activity at 1 µM [4] | activity at 10 µM [4] |
| --- | --- | --- | --- | --- | --- | --- | --- | --- |
| – | – | – | – | O=C(O)c1ccc2c(=O)n(Cc3ccccc3)c(SCc3ccc(Cl)c(Cl)c3)nc2c1 [Compound 5] | 0.87 µM | without any activity against sEH | – | – |
| 215.5 to 216.9 °C | 1.6 ± 0.1 µM | < 10 µM | – | CC(C)(C)CNC(=O)c1ccc2c(=O)[nH]c(SCc3ccc(Cl)c(Cl)c3)nc2c1 [Compound 38, 2-((3,4-Dichlorobenzyl)thio)-N-neopentyl-4-oxo-3,4-dihydroquinazoline-7-carboxamide] | – | – | 105 ± 3.1% | 34.9 ± 10.6% |
| 306.3 °C (dec.) | > 10 µM | > 10 µM | 71% | CC(C)NC(=O)c1ccc2c(=O)[nH]c(SCc3ccccc3Cl)nc2c1 [Compound 45, 2-((2-Chlorobenzyl)thio)-N-isopropyl-4-oxo-3,4-dihydroquinazoline-7-carboxamide] | – | – | 96.6 ± 6.7% | 70.3 ± 21.4% |
| 176.7 to 178.7 °C | > 10 µM | 2.7 ± 0.8 µM | 68% | CC(C)(C)CNC(=O)c1ccc2c(=O)[nH]c(NCc3ccccc3Cl)nc2c1 [Compound 55, 2-((2-Chlorobenzyl)amino)-N-neopentyl-4-oxo-3,4-dihydroquinazoline-7-carboxamide] | – | – | 77.9 ± 12.1% | 8.9 ± 3.6% |

Source: paper PMC9583330, “Quinazoline-4(3H)-one-7-carboxamide Derivatives as Human Soluble Epoxide Hydrolase Inhibitors with Developable 5-Lipoxygenase Activating Protein Inhibition” (ACS Omega, 2022)
